Like-named read-outs stand apart in the source and are kept apart here.
Columns and labels:
[1] = tested on: transformed E. coli BL21(DE3); experiment: Growth of transformed E. coli in minimal medium (M9) with 1,2,4-triazole carboxamide protoxin; format: cell-based; conditions: 200 μM, kanamycin, 96-well plates
Source text: It is widely appreciated that ribavirin is a broad-spectrum antiviral nucleoside analog. […] This would form the basis of a ready-made survival based bioassay for ribavirin-1-phosphate biosynthesis directed evolution (FIG. 20). In this selection scheme an E. coli library containing variants of the purine salvage enzyme hypoxanthine phosphoribosyltransferase (HPRT) is replicated into M9 media supplemented with 1,2,4-triazole carboxamide 7 “protoxin.” Active enzymes react triazole with endogenous PRPP 8 to form ribavirin monophosphate 5, an IMPDH poison resulting in growth inhibition. Negative controls with synthetically prepared 1,2,4-triazole carboxamide 7 and complementation experiments with guanosine monophosphate confirmed the validity of this method. Subsequently, a library of mutagenized HPRT in E. coli was evaluated. The assay can be improved by adding nutrients to the medium.
(§1) A small mutant library of ca. 1000 members was replica plated into 96-well plates containing minimal medium (M9), kanamycin and 200 μM synthetically prepared 1,2,4-triazole carboxamide (2), a concentration found to be non-lethal to transformed E. coli BL21(DE3) under these conditions. Plates were grown for 5 days at 37° C. and cell growth was visualized by staining with tetrazolium blue. […] The mutant and wild type HPRT enzymes were expressed as His×6 tagged proteins and purified to homogeneity (FIG. 22B).

[2] = tested on: E. coli BL21(DE3) expressing mutant HPRT; experiment: Time course sensitivity determination by triazole dilution assay of HPRT mutant clones; format: cell-based; conditions: growth-impaired HPRT mutant clones, FIG. 22A
Source text: FIG. 22A is a graph of time course of sensitivity of clones identified by triazole sensitivity screening methodology. FIG. 22B is a SDS-PAGE gel of expression and nickel affinity purification of 8B3 HPRT. Left is cell-free extract and right is purified 8B3.
It is widely appreciated that ribavirin is a broad-spectrum antiviral nucleoside analog. […] This would form the basis of a ready-made survival based bioassay for ribavirin-1-phosphate biosynthesis directed evolution (FIG. 20). In this selection scheme an E. coli library containing variants of the purine salvage enzyme hypoxanthine phosphoribosyltransferase (HPRT) is replicated into M9 media supplemented with 1,2,4-triazole carboxamide 7 “protoxin.” Active enzymes react triazole with endogenous PRPP 8 to form ribavirin monophosphate 5, an IMPDH poison resulting in growth inhibition. […] Subsequently, a library of mutagenized HPRT in E. coli was evaluated. […]
as §1, with “conditions.” for “conditions. Plates were grown for 5 days at 37° C. and cell growth was visualized by staining with tetrazolium blue.”

[3] = biological target: T1, PNP (purine nucleoside phosphorylase) (Escherichia coli, UniProt P0ABP8); experiment: Phosphorolysis of inosine vs. dideoxyinosine by PNP (basal activity, Lineweaver-Burke plot); format: biochemical, E. coli; conditions: apparent Km values
T1 sequence (P0ABP8 1-239): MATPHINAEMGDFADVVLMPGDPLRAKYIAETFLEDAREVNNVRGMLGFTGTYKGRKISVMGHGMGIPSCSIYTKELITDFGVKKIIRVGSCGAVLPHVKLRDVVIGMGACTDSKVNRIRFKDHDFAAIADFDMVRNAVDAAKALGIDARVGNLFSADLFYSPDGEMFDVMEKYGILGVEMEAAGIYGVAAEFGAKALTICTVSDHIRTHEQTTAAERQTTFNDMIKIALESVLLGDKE

[4] = biological target: inosine monophosphate dehydrogenase (IMPDH) (Escherichia coli, UniProt P0ADG7); conditions: cited from earlier work
[5] = substrate: OC[C@H]1O[C@@H](n2cnc3c(O)ncnc32)[C@H](O)[C@@H]1O; experiment: Phosphorolysis of inosine vs. dideoxyinosine by PNP (basal activity, Lineweaver-Burke plot); format: biochemical, E. coli; conditions: other: substrate of PNP; reverse reaction (phosphorolysis, release of hypoxanthine) monitored with colorimetric assay of FIG. 7

Chain of inosine monophosphate dehydrogenase (IMPDH) (P0ADG7 whole entry): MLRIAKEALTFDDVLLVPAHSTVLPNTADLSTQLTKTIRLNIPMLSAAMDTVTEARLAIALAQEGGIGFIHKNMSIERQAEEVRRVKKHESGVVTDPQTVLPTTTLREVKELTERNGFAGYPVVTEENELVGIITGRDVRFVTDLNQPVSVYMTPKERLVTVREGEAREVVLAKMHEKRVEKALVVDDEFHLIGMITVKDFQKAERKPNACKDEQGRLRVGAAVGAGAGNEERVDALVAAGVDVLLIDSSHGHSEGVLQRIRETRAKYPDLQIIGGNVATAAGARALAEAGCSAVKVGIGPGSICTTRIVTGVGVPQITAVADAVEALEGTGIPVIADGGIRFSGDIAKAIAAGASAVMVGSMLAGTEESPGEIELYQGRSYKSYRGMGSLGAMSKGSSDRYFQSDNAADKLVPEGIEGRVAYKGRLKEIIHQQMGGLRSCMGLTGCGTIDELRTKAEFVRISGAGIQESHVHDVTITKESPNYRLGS

Molecule: NC(=O)c1nc[nH]n1 [1,2,4-triazole carboxamide]
- lethality to transformed E. coli BL21(DE3) [1]: non-lethal
- susceptibility of HPRT mutants to triazole in vivo (versus wild type) [2]: > 2 fold

Molecule: O=c1[nH]cnc2c1ncn2[C@H]1CC[C@@H](CO)O1 [ddI, dideoxyinosine]
- Km of ddI relative to that of inosine [3]: > 100 times

Molecule: NC(=O)c1ncn([C@@H]2O[C@H](COP(=O)(O)O)[C@@H](O)[C@H]2O)n1 [ribavirin-1-phosphate 5, ribavirin monophosphate]
- inhibition of IMPDH [4]: potent competitive inhibitor
- inhibition of IMPDH ([4]; listed as Ribavirin monophosphate): competitive inhibitor

B1: PNP (purine nucleoside phosphorylase) (Escherichia coli K-12) (protein)
chain: MATPHINAEMGDFADVVLMPGDPLRAKYIAETFLEDAREVNNVRGMLGFTGTYKGRKISVMGHGMGIPSCSIYTKELITDFGVKKIIRVGSCGAVLPHVKLRDVVIGMGACTDSKVNRIRFKDHDFAAIADFDMVRNAVDAAKALGIDARVGNLFSADLFYSPDGEMFDVMEKYGILGVEMEAAGIYGVAAEFGAKALTICTVSDHIRTHEQTTAAERQTTFNDMIKIALESVLLGDKE
- Km [5]: 56 µM
